Laboratory results as given in paper PMC9130233, “An inhibitor of RORγ for chronic pulmonary obstructive disease treatment” (Scientific Reports, 2022).
Where two headings read alike, the source gives them in different places.

Key:
Kinases (~ 40 in no) = assay: Kinase panel (~ 40); format: biochemical; parameters: key: NSE No significant effect; V wk very weak (very low-level agonist activity seen with mPPARγ); conditions: at 10 µM
From the text: Based on the homology of the ligand binding domains, 3 different isoforms of ROR (hRORα, hRORβ and hRORγ) are reported. Small variations in the LBD regions possibly lead to differences in competitive binding between the nuclear receptors of the ROR isoforms (Fig. 1b). Similar to the assessment of RORγ binding assay, TR-FRET binding assays were also used to assess the affinity of PCCR-1 for other ROR isoforms. […] This was reconfirmed in cellular functional assays for the selected isoforms and nuclear receptors using Gal4 DBD with luciferase reporter system from Indigo (PA, USA). […] In addition, both cellular agonist and antagonist effects as well as for enzyme activity were evaluated with a known reference compound for each target, using a radiolabeled method (Eurofins Cerep, France, Table 1).

[1] = tested on: IL-17 release from COPD patient whole blood; assay: IL-17 release, whole blood from COPD patients; format: cell-based; conditions: Homo sapiens; TCR stimulated, n = 5; read-out: IL-17 IC50, COPD patient's sample: WB
Procedure: Whole blood and BAL samples from COPD patients were obtained from Multispecialty hospital, Mumbai post approval from ethics committee and informed consent of patients. 30–40 mL Broncho alveolar lavage (BALf) was collected per patient and stored in ice. Blood was collected in heparin vaccutainer as per approved protocol. Both the samples were processed within 2 h of collection. BALF was passed through 100-µm and 40-µm cell strainer to remove debris and mucus, the samples were centrifuged and the cells were re-suspended in RPMI 1640 complete medium. PBMCs from blood were isolated using Histopaque-1077 by density gradient centrifugation. Isolated BAL cells and PBMCs were seeded in 96 well coated with 10 µg/ml anti-CD3 and 2 µg/ml anti-CD2. Cells were further treated with different concentration of test compound for 60 min followed by stimulation with 20 µg/ml anti-CD28 and incubated for 48–72 h. The supernatant was used for estimating IL-17 by ELISA.

[2] = tested on: IL-17A release in canine PBMC; assay: IL-17A release, canine PBMC, anti-CD3 + anti-CD28; format: cell-based; conditions: Canis lupus familiaris, anti-CD3 + anti-CD28, n = 6, read-out: Cellular activity: Canine IC50, IL-17A release
Procedure: Inhibition of RORγ by PCCR-1 was also estimated in a functional assay by measuring the inhibition of Th17 dependent cytokine IL-17A release in human peripheral blood mononuclear cells (PBMCs), mouse splenocytes and canine PBMC stimulated with their respective anti-CD3 and anti-CD28 antibodies.
Canine PBMCs were procured from Lonza (Cologue, Germany). Frozen canine PBMCs was quickly thawed in a 37 °C water bath and cells were seeded in 96-well plates coated with canine anti-CD3mAb (30 µg/mL). Cells were further treated with the compound similar to human PBMC with co-stimulation of canine anti-CD28 mAb (10 µg/mL). After 72 h of incubation the supernatant was collected for estimating canine IL-17 by ELISA.

[3] = Toxicokinetics (blood), 14-day inhalation study in Sprague Dawley rats; format: in vivo, rat; conditions: for half-life / AUC(0-t) / Cmax / Tmax: inhaled or intranasal; for half-life / AUC(0-t) / Cmax: inhalation; for AUC(0-t): read-out: AUC0-tlast, mean (SE); for Cmax: read-out: Cmax, mean (SE)
Procedure: Rats were exposed to PCCR-1 aerosols at 3.4, 10.8 and 32.1 mg/kg/day (delivered dose) for 60 min daily for 14 days using a snout only exposure technique via a modular stainless steel flow past inhalation chamber at indicated doses as mentioned in Table 3. No treatment-related findings noted, including myeloid:erythroid (M:E) ratios in any dose levels except minimal changes in the reticulocytes and adrenal glands.
The TK assessment was done by measuring the concentrations of PCCR-1 in blood.
The toxicology study was done in SD (Sprague Dawley) rats that were exposed to PCCR-1 aerosol for 60 min daily at 3.4, 10.8 and 32.1 mg/kg/day (delivered dose) for 14 days using a snout only exposure technique via a modular stainless steel flow past inhalation chamber. A 60% w/w blend of PCCR-1 in Lactose LH201 was prepared by adding the appropriate amount of PCCR-1 to the appropriate amount of lactose. The estimated delivered doses were derived based on analytical aerosol concentration, and respiratory minute volume calculated based on body weight, exposure duration, and animal body weight (Supplementary section B).

[4] = both sexes, Sprague Dawley, rat, blood, 10.8 mg/kg/day, SD rat blood, 10.8 mg/kg/day, Day 1, Mean
[5] = both sexes, Sprague-Dawley, rat, blood, 3.4 mg/kg/day, SD rat blood, 3.4 mg/kg/day, Day 1, Mean
[6] = both sexes, Sprague-Dawley, rat, blood, 3.4 mg/kg/day, SD rat blood, 3.4 mg/kg/day, Day 14, Mean
[7] = both sexes, Sprague-Dawley, rat, in vivo, 32.1 mg/kg/day, SD rat blood, 32.1 mg/kg/day, Day 1, Mean
[8] = both sexes, Sprague-Dawley, rat, in vivo, 32.1 mg/kg/day, SD rat blood, 32.1 mg/kg/day, Day 14, Mean
[9] = both sexes, Sprague-Dawley, rat, whole blood, 10.8 mg/kg/day, SD rat blood, 10.8 mg/kg/day, Day 14, Mean
[10] = female, Sprague-Dawley, rat, blood, 3.4 mg/kg/day, SD rat blood, 3.4 mg/kg/day, Day 1, Female
[11] = female, Sprague-Dawley, rat, blood, 3.4 mg/kg/day, SD rat blood, 3.4 mg/kg/day, Day 14, Female
[12] = female, Sprague-Dawley, rat, blood, 10.8 mg/kg/day, SD rat blood, 10.8 mg/kg/day, Day 1, Female
[13] = female, Sprague-Dawley, rat, in vivo, 32.1 mg/kg/day, SD rat blood, 32.1 mg/kg/day, Day 1, Female
[14] = female, Sprague-Dawley, rat, in vivo, 32.1 mg/kg/day, SD rat blood, 32.1 mg/kg/day, Day 14, Female
[15] = female, Sprague-Dawley, rat, whole blood, 10.8 mg/kg/day, SD rat blood, 10.8 mg/kg/day, Day 14, Female
[16] = male, Sprague Dawley, rat, blood, 10.8 mg/kg/day, SD rat blood, 10.8 mg/kg/day, Day 1, Male
[17] = male, Sprague-Dawley, rat, blood, 3.4 mg/kg/day, SD rat blood, 3.4 mg/kg/day, Day 1, Male
[18] = male, Sprague-Dawley, rat, blood, 3.4 mg/kg/day, SD rat blood, 3.4 mg/kg/day, Day 14, Male
[19] = male, Sprague-Dawley, rat, in vivo, 32.1 mg/kg/day, SD rat blood, 32.1 mg/kg/day, Day 1, Male
[20] = male, Sprague-Dawley, rat, in vivo, 32.1 mg/kg/day, SD rat blood, 32.1 mg/kg/day, Day 14, Male
[21] = male, Sprague-Dawley, rat, whole blood, 10.8 mg/kg/day, SD rat blood, 10.8 mg/kg/day, Day 14, Male
[22] = rat blood, mid and high dose levels

Structure (SMILES): CCn1c(C(C)(C)Oc2ccc(F)cc2F)nc2cc(NC(=O)Cc3ccc(S(=O)(=O)CC)cc3)ccc21 [PCCR-1]
- Kinases (~ 40 in no) (Kinases (~ 40 in no)): NSE at 10 µM
- IC50 [1]: 5.05 µM
- IC50 [2]: 0.504 µM
- half-life ([3]; Sprague-Dawley, in vivo, SD rat blood, 32.1 mg/kg/day, Day 1, Female): 6.9 h
- half-life ([3]; Sprague-Dawley, in vivo, SD rat blood, 32.1 mg/kg/day, Day 1, Male): 6.8 h
- AUC(0-t) [3, 4]: 5090 ng·h/mL
- Cmax [3, 4]: 457 ng/mL
- Tmax ([3]; both sexes, Sprague Dawley, rat, blood, 10.8 mg/kg/day, from start of inhalation dosing, SD rat blood, 10.8 mg/kg/day, Day 1, Mean): 3 h
- half-life ([3]; both sexes, Sprague-Dawley, in vivo, SD rat blood, 32.1 mg/kg/day, Day 1, Mean): 6.8 h
- AUC(0-t) [3, 5]: 982 ng·h/mL
- Cmax [3, 5]: 189 ng/mL
- half-life [3, 6]: 6.4 h
- AUC(0-t) [3, 6]: 2560 ng·h/mL
- Cmax [3, 6]: 215 ng/mL
- Tmax ([3]; both sexes, Sprague-Dawley, rat, blood, 3.4 mg/kg/day, from start of inhalation dosing, SD rat blood, 3.4 mg/kg/day, Day 1, Mean): 3 h
- Tmax ([3]; both sexes, Sprague-Dawley, rat, blood, 3.4 mg/kg/day, from start of inhalation dosing, SD rat blood, 3.4 mg/kg/day, Day 14, Mean): 4 h
- AUC(0-t) [3, 7]: 7440 ng·h/mL
- Cmax [3, 7]: 735 ng/mL
- AUC(0-t) [3, 8]: 12200 ng·h/mL
- Cmax [3, 8]: 1020 ng/mL
- half-life ([3]; both sexes, Sprague-Dawley, rat, whole blood, 10.8 mg/kg/day, SD rat blood, 10.8 mg/kg/day, Day 1, Mean): 5.9 h
- half-life [3, 9]: 5.1 h
- AUC(0-t) [3, 9]: 6750 ng·h/mL
- Cmax [3, 9]: 519 ng/mL
- Tmax ([3]; both sexes, Sprague-Dawley, rat, whole blood, 10.8 mg/kg/day, from start of inhalation dosing, SD rat blood, 10.8 mg/kg/day, Day 14, Mean): 4 h
- tlast ([3]; both, Sprague-Dawley, rat, in vivo, 3.4 mg/kg/day): 25.0 h
- tlast ([3]; both, Sprague-Dawley, rat, in vivo, 10.8 mg/kg/day): 25.0 h
- AUC(0-t) [3, 10]: 1000 ng·h/mL
- Cmax [3, 10]: 202 ng/mL
- AUC(0-t) [3, 11]: 2610 ng·h/mL
- Cmax [3, 11]: 241 ng/mL
- Tmax ([3]; female, Sprague-Dawley, rat, blood, 3.4 mg/kg/day, from start of inhalation dosing, SD rat blood, 3.4 mg/kg/day, Day 1, Female): 3 h
- Tmax ([3]; female, Sprague-Dawley, rat, blood, 3.4 mg/kg/day, from start of inhalation dosing, SD rat blood, 3.4 mg/kg/day, Day 14, Female): 5 h
- half-life [3, 12]: 5.8 h
- AUC(0-t) [3, 12]: 7270 ng·h/mL
- Cmax [3, 12]: 544 ng/mL
- Tmax ([3]; female, Sprague-Dawley, rat, blood, 10.8 mg/kg/day, from start of inhalation dosing, SD rat blood, 10.8 mg/kg/day, Day 1, Female): 3 h
- tlast ([3]; female, Sprague-Dawley, rat, in vivo, 3.4 mg/kg/day): 25.0 h
- tlast ([3]; female, Sprague-Dawley, rat, in vivo, 10.8 mg/kg/day): 25.0 h
- AUC(0-t) [3, 13]: 9470 ng·h/mL
- Cmax [3, 13]: 936 ng/mL
- AUC(0-t) [3, 14]: 16200 ng·h/mL
- Cmax [3, 14]: 1150 ng/mL
- half-life [3, 15]: 5.1 h
- AUC(0-t) [3, 15]: 8050 ng·h/mL
- Cmax [3, 15]: 679 ng/mL
- Tmax ([3]; female, Sprague-Dawley, rat, whole blood, 10.8 mg/kg/day, from start of inhalation dosing, SD rat blood, 10.8 mg/kg/day, Day 14, Female): 3 h
- tlast ([3]; from start of inhalation dosing, SD rat blood, 3.4 mg/kg/day, Day 1, Female): 9.0 h
- tlast ([3]; from start of inhalation dosing, SD rat blood, 3.4 mg/kg/day, Day 1, Male): 9.0 h
- tlast ([3]; from start of inhalation dosing, SD rat blood, 3.4 mg/kg/day, Day 1, Mean): 9.0 h
- tlast ([3]; from start of inhalation dosing, SD rat blood, 32.1 mg/kg/day, Day 1, Female): 25.0 h
- tlast ([3]; from start of inhalation dosing, SD rat blood, 32.1 mg/kg/day, Day 1, Male): 25.0 h
- tlast ([3]; from start of inhalation dosing, SD rat blood, 32.1 mg/kg/day, Day 1, Mean): 25.0 h
- tlast ([3]; from start of inhalation dosing, SD rat blood, 32.1 mg/kg/day, Day 14, Female): 25.0 h
- tlast ([3]; from start of inhalation dosing, SD rat blood, 32.1 mg/kg/day, Day 14, Male): 25.0 h
- tlast ([3]; from start of inhalation dosing, SD rat blood, 32.1 mg/kg/day, Day 14, Mean): 25.0 h
- half-life [3, 16]: 6 h
- AUC(0-t) [3, 16]: 2910 ng·h/mL
- Cmax [3, 16]: 370 ng/mL
- Tmax ([3]; male, Sprague Dawley, rat, blood, 10.8 mg/kg/day, from start of inhalation dosing, SD rat blood, 10.8 mg/kg/day, Day 1, Male): 3 h
- tlast ([3]; male, Sprague Dawley, rat, in vivo, 10.8 mg/kg/day): 25.0 h
- AUC(0-t) [3, 17]: 963 ng·h/mL
- Cmax [3, 17]: 177 ng/mL
- half-life [3, 18]: 6.4 h
- AUC(0-t) [3, 18]: 2500 ng·h/mL
- Cmax [3, 18]: 190 ng/mL
- Tmax ([3]; male, Sprague-Dawley, rat, blood, 3.4 mg/kg/day, from start of inhalation dosing, SD rat blood, 3.4 mg/kg/day, Day 1, Male): 3 h
- Tmax ([3]; male, Sprague-Dawley, rat, blood, 3.4 mg/kg/day, from start of inhalation dosing, SD rat blood, 3.4 mg/kg/day, Day 14, Male): 3 h
- tlast ([3]; male, Sprague-Dawley, rat, in vivo, 3.4 mg/kg/day): 25.0 h
- tlast ([3]; male, Sprague-Dawley, rat, in vivo, 10.8 mg/kg/day): 25.0 h
- AUC(0-t) [3, 19]: 5410 ng·h/mL
- Cmax [3, 19]: 534 ng/mL
- AUC(0-t) [3, 20]: 8230 ng·h/mL
- Cmax [3, 20]: 885 ng/mL
- AUC(0-t) [3, 21]: 5440 ng·h/mL
- Cmax [3, 21]: 359 ng/mL
- Tmax ([3]; male, Sprague-Dawley, rat, whole blood, 10.8 mg/kg/day, from start of inhalation dosing, SD rat blood, 10.8 mg/kg/day, Day 14, Male): 5 h
- AUC in blood accumulation relative to day-1 ([3]; once-daily inhalation for 14 days, except female rats at 10.8 mg/kg/day): 1.5–2.6 fold
- AUC in females higher than males [3, 22]: 1.5–2.5 fold
- Cmax in females higher than males [3, 22]: 1.3–1.9 fold
